# From ChEMBL document CHEMBL4665836, “Overcoming β-Lactam resistance in Pseudomonas aeruginosa using non-canonical tobramycin-based antibiotic adjuvants” (2020)
# What was measured:
# Type in all cases: functional
# Pseudomonas aeruginosa [1] = test: Potentiation of ceftazidime-induced antibacterial activity against wild type Pseudomonas aeruginosa PAO1 assessed as fold reduction in ceftazidime MIC at 8 uM
# Pseudomonas aeruginosa [2] = test: Potentiation of ceftazidime-induced antibacterial activity against carbapenem and colistin-resistant Pseudomonas aeruginosa 114228 clinical isolate assessed as ceftazidime MIC at 8 uM by checkerboard assay (reference value: 8 ug/ml)
# Pseudomonas aeruginosa [3] = test: Potentiation of imipenem-induced antibacterial activity against carbapenem-resistant Pseudomonas aeruginosa 107092 clinical isolate assessed as fold reduction in imipenem MIC at 8 uM in presence of beta-lactamase inhibitor, rele-bactam
# Pseudomonas aeruginosa [4] = test: Potentiation of aztreonam-induced antibacterial activity against carbapenem-resistant Pseudomonas aeruginosa 86052 clinical isolate assessed as fold reduction in aztreonam MIC at 8 uM in presence of beta-lactamase inhibitor, avi-bactam
# Pseudomonas aeruginosa [5] = test: Potentiation of aztreonam-induced antibacterial activity against wild type Pseudomonas aeruginosa PAO1 assessed as fold reduction in aztreonam MIC at 8 uM
# Pseudomonas aeruginosa [6] = test: Potentiation of ceftazidime-induced antibacterial activity against carbapenem-resistant Pseudomonas aeruginosa 86052 clinical isolate assessed as ceftazidime MIC at 8 uM by checkerboard assay (reference value: 64 ug/ml)
# Pseudomonas aeruginosa [7] = test: Potentiation of imipenem-induced antibacterial activity against carbapenem and colistin-resistant Pseudomonas aeruginosa 114228 clinical isolate assessed as imipenem MIC at 8 uM by checkerboard assay (reference value: 8 ug/ml)
# Pseudomonas aeruginosa [8] = test: Potentiation of imipenem-induced antibacterial activity against wild-type Pseudomonas aeruginosa PAO1 assessed as imipenem MIC at 8 uM by checkerboard assay (reference value: 4 ug/ml)
# Pseudomonas aeruginosa [9] = test: Potentiation of aztreonam-induced antibacterial activity against carbapenem-resistant Pseudomonas aeruginosa 107092 clinical isolate assessed as fold reduction in aztreonam MIC at 8 uM in presence of beta-lactamase inhibitor, avi-bactam
# Pseudomonas aeruginosa [10] = test: Potentiation of aztreonam-induced antibacterial activity against carbapenem-resistant Pseudomonas aeruginosa 100036 clinical isolate assessed as aztreonam MIC at 8 uM by checkerboard assay (reference value: 16 ug/ml)
# Pseudomonas aeruginosa [11] = test: Potentiation of aztreonam-induced antibacterial activity against carbapenem-resistant Pseudomonas aeruginosa 262-101856 clinical isolate assessed as aztreonam MIC at 8 uM by checkerboard assay (reference value: 32 ug/ml)
# Pseudomonas aeruginosa [12] = test: Potentiation of imipenem-induced antibacterial activity against carbapenem-resistant Pseudomonas aeruginosa PAO200 harboring mexAB-oprM efflux deficient mutant assessed as imipenem MIC at 8 uM by checkerboard assay (reference value: 4 ug/ml)
# Pseudomonas aeruginosa [13] = test: Potentiation of imipenem-induced antibacterial activity against carbapenem-resistant Pseudomonas aeruginosa 108590 clinical isolate assessed as fold reduction in imipenem MIC at 8 uM in presence of beta-lactamase inhibitor, rele-bactam
# Pseudomonas aeruginosa [14] = test: Potentiation of ceftazidime-induced antibacterial activity against carbapenem-resistant Pseudomonas aeruginosa PAO200 harboring mexAB-oprM efflux deficient mutant assessed as ceftazidime MIC at 8 uM by checkerboard assay (reference value: 1 ug/ml)
# Pseudomonas aeruginosa [15] = test: Potentiation of imipenem-induced antibacterial activity against carbapenem-resistant Pseudomonas aeruginosa 260-97103 clinical isolate assessed as imipenem MIC at 8 uM by checkerboard assay (reference value: 16 ug/ml)
# Pseudomonas aeruginosa [16] = test: Potentiation of ceftazidime-induced antibacterial activity against carbapenem-resistant Pseudomonas aeruginosa 100036 clinical isolate assessed as ceftazidime MIC at 8 uM by checkerboard assay (reference value: 8 ug/ml)
# Pseudomonas aeruginosa [17] = test: Potentiation of ceftazidime-induced antibacterial activity against carbapenem-resistant Pseudomonas aeruginosa 264-104354 clinical isolate assessed as ceftazidime MIC at 8 uM by checkerboard assay (reference value: 128 ug/ml)
# Pseudomonas aeruginosa [18] = test: Potentiation of ceftazidime-induced antibacterial activity against carbapenem-resistant Pseudomonas aeruginosa 262-101856 clinical isolate assessed as ceftazidime MIC at 8 uM by checkerboard assay (reference value: 16 ug/ml)
# Pseudomonas aeruginosa [19] = test: Potentiation of imipenem-induced antibacterial activity against carbapenem and colistin-resistant Pseudomonas aeruginosa 91433 clinical isolate assessed as imipenem MIC at 8 uM by checkerboard assay (reference value: 8 ug/ml)
# Pseudomonas aeruginosa [20] = test: Potentiation of ceftazidime-induced antibacterial activity against carbapenem and colistin-resistant Pseudomonas aeruginosa 91433 clinical isolate assessed as ceftazidime MIC at 8 uM by checkerboard assay (reference value: 4 ug/ml)
# Pseudomonas aeruginosa [21] = test: Potentiation of imipenem-induced antibacterial activity against carbapenem-resistant Pseudomonas aeruginosa 259-96918 clinical isolate expressing MBL assessed as imipenem MIC at 8 uM by checkerboard assay (reference value: 64 ug/ml)
# Pseudomonas aeruginosa [22] = test: Potentiation of ceftazidime-induced antibacterial activity against carbapenem-resistant Pseudomonas aeruginosa 107092 clinical isolate assessed as ceftazidime MIC at 8 uM by checkerboard assay (reference value: 128 ug/ml)
# Pseudomonas aeruginosa [23] = test: Potentiation of aztreonam-induced antibacterial activity against carbapenem-resistant Pseudomonas aeruginosa 264-104354 clinical isolate assessed as aztreonam MIC at 8 uM by checkerboard assay (reference value: 32 ug/ml)
# Pseudomonas aeruginosa [24] = test: Potentiation of imipenem-induced antibacterial activity against carbapenem-resistant Pseudomonas aeruginosa 101885 clinical isolate assessed as imipenem MIC at 8 uM by checkerboard assay (reference value: 4 ug/ml)
# Pseudomonas aeruginosa [25] = test: Potentiation of imipenem-induced antibacterial activity against carbapenem-resistant Pseudomonas aeruginosa 264-104354 clinical isolate assessed as imipenem MIC at 8 uM by checkerboard assay (reference value: 16 ug/ml)
# Pseudomonas aeruginosa [26] = test: Potentiation of ceftazidime-induced antibacterial activity against carbapenem-resistant Pseudomonas aeruginosa 108590 clinical isolate assessed as ceftazidime MIC at 8 uM by checkerboard assay (reference value: 32 ug/ml)
# Pseudomonas aeruginosa [27] = test: Potentiation of imipenem-induced antibacterial activity against carbapenem-resistant Pseudomonas aeruginosa 100036 clinical isolate assessed as imipenem MIC at 8 uM by checkerboard assay (reference value: 8 ug/ml)
# Pseudomonas aeruginosa [28] = test: Potentiation of ceftazidime-induced antibacterial activity against carbapenem-resistant Pseudomonas aeruginosa 108590 clinical isolate assessed as fold reduction in ceftazidime MIC at 8 uM in presence of beta-lactamase inhibitor, avi-bactam
# Pseudomonas aeruginosa [29] = test: Antibacterial activity against Pseudomonas aeruginosa PAO750 harboring mexAB-oprM/mexCD-oprJ/mexEF-oprN/mexJK/mexXY/opmH efflux deficient mutant
# Pseudomonas aeruginosa [30] = test: Potentiation of aztreonam-induced antibacterial activity against carbapenem-resistant Pseudomonas aeruginosa PAO200 harboring mexAB-oprM efflux deficient mutant assessed as aztreonam MIC at 8 uM by checkerboard assay (reference value: 0.25 ug/ml)
# Pseudomonas aeruginosa [31] = test: Potentiation of aztreonam-induced antibacterial activity against carbapenem-resistant Pseudomonas aeruginosa 109084 clinical isolate assessed as aztreonam MIC at 8 uM by checkerboard assay (reference value: 64 ug/ml)
# Pseudomonas aeruginosa [32] = test: Potentiation of ceftazidime-induced antibacterial activity against carbapenem-resistant Pseudomonas aeruginosa 109084 clinical isolate assessed as ceftazidime MIC at 8 uM by checkerboard assay (reference value: 64 ug/ml)
SMILES,fold change (FC) (Pseudomonas aeruginosa [1]),MIC (Pseudomonas aeruginosa [2]),fold change (FC) (Pseudomonas aeruginosa [3]),fold change (FC) (Pseudomonas aeruginosa [4]),fold change (FC) (Pseudomonas aeruginosa [5]),MIC (Pseudomonas aeruginosa [6]),MIC (Pseudomonas aeruginosa [7]),MIC (Pseudomonas aeruginosa [8]),fold change (FC) (Pseudomonas aeruginosa [9]),MIC (Pseudomonas aeruginosa [10]),MIC (Pseudomonas aeruginosa [11]),MIC (Pseudomonas aeruginosa [12]),fold change (FC) (Pseudomonas aeruginosa [13]),MIC (Pseudomonas aeruginosa [14]),MIC (Pseudomonas aeruginosa [15]),MIC (Pseudomonas aeruginosa [16]),MIC (Pseudomonas aeruginosa [17]),MIC (Pseudomonas aeruginosa [18]),MIC (Pseudomonas aeruginosa [19]),MIC (Pseudomonas aeruginosa [20]),further results
N=C(N)NC[C@H]1O[C@H](O[C@H]2[C@H](OCCCCCCCCCCCCN3CCN(c4cc5c(cc4F)c(=O)c(C(=O)O)cn5C4CC4)CC3)[C@@H](O[C@H]3O[C@H](CO)[C@@H](O)[C@H](NC(=N)N)[C@H]3O)[C@H](NC(=N)N)C[C@@H]2NC(=N)N)[C@H](NC(=N)N)C[C@@H]1O.O=C(O)C(F)(F)F.O=C(O)C(F)(F)F.O=C(O)C(F)(F)F.O=C(O)C(F)(F)F.O=C(O)C(F)(F)F.O=C(O)C(F)(F)F,2,2 µg/mL,16,16,2,32 µg/mL,1 µg/mL,1 µg/mL,16,16 µg/mL,32 µg/mL,2 µg/mL,16,0.25 µg/mL,8 µg/mL,6 µg/mL,128 µg/mL,16 µg/mL,8 µg/mL,4 µg/mL,MIC (Pseudomonas aeruginosa [21]): 64 µg/mL; MIC (Pseudomonas aeruginosa [22]): 32 µg/mL; MIC (Pseudomonas aeruginosa [23]): 32 µg/mL; MIC (Pseudomonas aeruginosa [24]): 2 µg/mL; MIC (Pseudomonas aeruginosa [25]): 16 µg/mL; MIC (Pseudomonas aeruginosa [26]): 2 µg/mL; MIC (Pseudomonas aeruginosa [27]): 4 µg/mL; fold change (FC) (Pseudomonas aeruginosa [28]): 16; MIC (Pseudomonas aeruginosa [29]): 16 µg/mL; MIC (Pseudomonas aeruginosa [30]): 0.06 µg/mL; MIC (Pseudomonas aeruginosa [31]): 32 µg/mL; MIC (Pseudomonas aeruginosa [32]): 32 µg/mL
NC[C@H]1O[C@H](O[C@H]2[C@H](OCCCCc3cn(CCCCO[C@@H]4[C@@H](O)[C@H](N)C[C@H](N)[C@H]4O[C@H]4O[C@H](CN)[C@@H](O)C[C@H]4N)nn3)[C@@H](O)[C@H](N)C[C@@H]2N)[C@H](N)C[C@@H]1O.O=C(O)C(F)(F)F.O=C(O)C(F)(F)F.O=C(O)C(F)(F)F.O=C(O)C(F)(F)F.O=C(O)C(F)(F)F.O=C(O)C(F)(F)F.O=C(O)C(F)(F)F.O=C(O)C(F)(F)F,2,1 µg/mL,16,16,2,64 µg/mL,4 µg/mL,2 µg/mL,16,4 µg/mL,16 µg/mL,1 µg/mL,16,0.25 µg/mL,16 µg/mL,4 µg/mL,32 µg/mL,16 µg/mL,8 µg/mL,0.5 µg/mL,MIC (Pseudomonas aeruginosa [21]): 64 µg/mL; MIC (Pseudomonas aeruginosa [22]): 128 µg/mL; MIC (Pseudomonas aeruginosa [23]): 8 µg/mL; MIC (Pseudomonas aeruginosa [24]): 4 µg/mL; MIC (Pseudomonas aeruginosa [25]): 8 µg/mL; MIC (Pseudomonas aeruginosa [26]): 32 µg/mL; MIC (Pseudomonas aeruginosa [27]): 4 µg/mL; fold change (FC) (Pseudomonas aeruginosa [28]): 16; MIC (Pseudomonas aeruginosa [29]): 128 µg/mL; MIC (Pseudomonas aeruginosa [30]): 0.06 µg/mL; MIC (Pseudomonas aeruginosa [31]): 16 µg/mL; MIC (Pseudomonas aeruginosa [32]): 32 µg/mL
